The subject of data set [1] is primary human keratinocytes. The experiment in a line: Cell viability in keratinocyte CCL2 assay (assay number 1243). The format is cell-based. To be noted: Homo sapiens, Keratinocyte; cell viability in CCL2 assay; read-out: Abs EC50: Viab (1243). The text has this: (§1) • 1. Determination of inhibition of CCL2 release from IL-4, IL-13, IL-22 and IFN-γ-stimulated primary human keratinocytes [assay number 1280] and determination of the effect on cell viability [assay number 1243]. • 2. Determination of inhibition of IL-8 release from IL-17A and TNFα-induced primary human keratinocytes [assay number 1250] and determination of the effect on cell viability [assay number 1244]. • 3. Determination of inhibition of IL-17A secretion from human PBMC stimulated with antiCD3/antiCD28-coated beads [assay number 1321] and determination of the effect on cell viability [assay number 1322]. • 4. Determination of inhibition of IL-4 and IL-2 secretion from human CD4-positive T-cells stimulated with antiCD2/antiCD3/antiCD28-coated beads [assay number 1297, 1298] and determination of the effect on cell viability [assay number 1299].

Assay in data set [2]: as above
In kind it is cell-based, human. To be noted: human; maximum reduction of cell viability in CCL2 assay; read-out: Max Eff.: Viab (1243).
Source text: as §1

Molecules are shown by their SMILES.

As to `CCOc1cc(O)cc(/C=C/c2ccc(NC(=O)C(=O)O)c(OC)c2)c1CC=C(C)C` [Compound 35, (E)-2-((4-(3-Ethoxy-5-hydroxy-2-(3-methylbut-2-en-1-yl)styryl)-2-methoxyphenyl)amino)-2-oxoacetic acid], the EC50 in data set [1] turned out to be 5000 nM. Moreover, in data set [2], the cytotoxicity amounted to 30%.
Regarding `COc1cc(/C=C/c2cc(O)cc(OC)c2CC=C(C)C)ccc1NC(=O)CN` [Compound 31, (E)-2-amino-N-(4-(5-hydroxy-3-methoxy-2-(3-methylbut-2-en-1-yl)styryl)-2-methoxyphenyl)acetamide], in data set [1], the EC50 amounted to 431 nM. In addition, in data set [2], the cytotoxicity was 86%.

Broadly, the EC50 is the concentration that produces a half-maximal response.

Source of the values: patent US20260209152A1, “Substituted Hydroxystilbene Compounds and Derivatives, Synthesis and Uses Thereof” (Kynan Duke IP, LLC, priority 2019, published 2026).
